Assay results as given in patent US12145915B1 (priority 2023, dated 2024).
≈ marks a conversion by molar mass, not a printed value.

Experiments:
[1] = system: XDR strain of Mycobacterium tuberculosis; assay: microbe, parasite or virus in culture; format: cell-based; settings: read-out: Anti-tubercular activity against Mycobacterium tuberculosis (μg/mL) XDR (MIC)
[2] = system: MDR strain of Mycobacterium tuberculosis; assay: microbe, parasite or virus in culture; format: cell-based; settings: read-out: Anti-tubercular activity against Mycobacterium tuberculosis (μg/mL) MDR (MIC)

`Cc1nc(-c2ccc(OCC(C)C)c(C#N)c2)sc1C(=O)N/N=C/c1ccc(F)c(Oc2ccccc2)c1` [KNV-TZL1, (E)-2-(3-Cyano-4-isobutoxyphenyl)-N-(4-fluoro-3-phenoxybenzylidene)-4-methylthiazole-5-carbohydrazide] was tested, and the MIC [1] was 128 µg/mL (≈ 242 µM) and the MIC [2] was 32 µg/mL (≈ 60.5 µM).

`COc1cc(/C=N/NC(=O)c2sc(-c3ccc(OCC(C)C)c(C#N)c3)nc2C)ccc1O` [KNV-TZL2, (E)-2-(3-Cyano-4-isobutoxyphenyl)-N-(4-hydroxy-3-methoxybenzylidene)-4-methylthiazole-5-carbohydrazide] showed an MIC [1] of 64 µg/mL (≈ 138 µM) and an MIC [2] of 64 µg/mL (≈ 138 µM).
